The values below come from US7759345B2, “Antitumoral derivatives of ET-743” (priority 2001, dated 2010).

In test [1] the test system is P-388. The test is described as follows: Inhibition of cell growth by counting cells, P-388. In kind it is cell-based, mouse. To be noted: three days of incubation, read-out: IC50 (molar) P-388. The procedure:
(§1) 1°.—Inhibition of Cell Growth by Counting Cells.
(§2) This form of the assay employs 24 well multidishes of 16 mm diameter (Bergeron, 1984; Schroeder, 1981). The tumor cell lines employed are: P-388 (ATCC CCL 46), suspension culture of a lymphoid neoplasm from a DBA/2 mouse; A-549 (ATCC CCL 185), monolayer culture of a human lung carcinoma; HT-29 (ATCC HTB-38), monolayer culture of a human colon carcinoma; MEL-28 (ATCC HTB-72), monolayer culture of a human melanoma and DU-145 (ATCC HTB-81), monolayer culture of a human prostate carcinoma.
(§3) Cells were maintained, in logarithmic phase of growth in Eagle's Minimum Essential Medium, with Earle's Balanced Salts, with non-essential amino acids, with 2.0 mM L-Glutamine, without sodium bicarbonate (EMEM/neaa), supplemented with 10% Fetal Calf Serum (FCS), 10^−2 M. sodium bicarbonate and 0.1 U/l penicillin G+0.1 g/l streptomycin sulfate. For the experiments, cells are harvested from subconfluent cultures using trypsin and resuspended in fresh medium before plating.
(§4) P-388 cells were seeded into 16 mm diameter wells at 1×10^4 cells per well in 1 ml aliquots of EMEM 5% FCS containing different concentrations of the sample to be tested. A separate set of cultures without drug was seeded as control of growth, to ensure that cells remained in exponential phase of growth. All determinations are carrying out in duplicate.
(§5) For quantifying the activity, after the incubation time, cells are trypsinized and counted in a Coulter Counter ZM. All counts (net cells per well), represent the average of duplicate wells. % G, percent of growth relative to cultures without drug. The results of these assays are used to generate dose-response curves from which more precise IC50 values are determined (sample concentration which produces 50% cell growth inhibition).
(§6) Obtained results may predict the usefulness of a certain drug as a potential cancer treatment. For this technique, compounds which show IC50 values smaller than 1 μg/ml are selected to continue with further studies. IC50's data allow to predict that not only could a drug be cystostatic, but also it could have a potential in terms of tumor reduction.

Test [2] has as its system A-549. In words: Inhibition of cell growth by counting cells, A-549. In kind it is cell-based, human. To be noted: three days of incubation, read-out: IC50 (molar) A-549. The method, boiled down:
(§7)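 Monolayer lines were plated at 1×10^4 cells per well with compound in medium containing 5% FCS. After a 3-day incubation at 37° C, crystal violet staining gave an approximate IC50, and cell counting of duplicate wells gave the dose-response IC50.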

For test [3], the system named is HT-29. In words: Inhibition of cell growth by counting cells, HT-29. The class given is cell-based, human. The note with it: three days of incubation, read-out: IC50 (molar) HT-29. The method, boiled down:
as §7

The test system of test [4] is MEL-28. In words: Inhibition of cell growth by counting cells, MEL-28. The note with it: three days of incubation, read-out: IC50 (molar) MEL-28. The class given is cell-based, human. The procedure:
as §1, §2, §3
as §4, with “A-549, HT-29, MEL-28 and DU-145” for “P-388”, “duplicate. After three days of incubation at 37° C., 5% CO2 in a 98% humid atmosphere cells were stained with 0.1% crystal violet. An approximately IC50 was determined by comparing the growth in wells with drug to the growth in wells control.” for “duplicate.”
as §5, §6

In test [5] the test system is DU-145. In words: Inhibition of cell growth by counting cells, DU-145. The class given is cell-based, human. The note with it: read-out: IC50 (molar) DU-145. The procedure: as §1, §2, §3
as §4, with “A-549, HT-29, MEL-28 and DU-145” for “P-388”, “duplicate. After three days of incubation at 37° C., 5% CO2 in a 98% humid atmosphere cells were stained with 0.1% crystal violet. An approximately IC50 was determined by comparing the growth in wells with drug to the growth in wells control.” for “duplicate.”
as §5, §6

Test [6] relates to A-549. The test is described as follows: Inhibition of cells growth by colorimetric assay (SRB), A-549. The class given is cell-based. The procedure:
(§8) 2°.—Inhibition of Cells Growth by Colorimetric Assay.
(§9) A colorimetric type of assay, using sulforhodamine B (SRB) reaction has been adapted for a quantitative measurement of cell growth and viability [following the technique described by Philip Skehan, et al. (1990), New colorimetric cytotoxicity assay for anticancer drug screening, J. Natl. Cancer Inst., 82:1107-1112]
(§10) This form of the assay employs 96 well cell culture microplates of 9 mm diameter (Faircloth, 1988; Mosmann, 1983). Most of the cell lines are obtained from American Type Culture Collection (ATCC) derived from different human cancer types.
(§11) Cells are maintained in RPMI 1640 10% FBS, supplemented with 0.1 g/l penicillin and 0.1 g/l streptomycin sulfate and then incubated at 37° C., 5% CO2 and 98% humidity. For the experiments, cells were harvested from subconfluent cultures using trypsin and resuspended in fresh medium before plating.
(§12) Cells are seeded in 96 well microtiter plates, at 5×10^3 cells per well in aliquots of 195 μl medium, and they are allowed to attach to the plate surface by growing in drug free medium for 18 hours. Afterward, samples are added in aliquots of 5 μl in a ranging from 10 to 10^−8 μg/ml, dissolved in DMSO/EtOH/PBS (0.5:0.5:99). After 48 hours exposure, the antitumor effect are measured by the SRB methodology: cells are fixed by adding 50 μl of cold 50% (wt/vol) trichloroacetic acid (TCA) and incubating for 60 minutes at 4° C. Plates are washed with deionized water and dried. One hundred μl of SRB solution (0.4% wt/vol in 1% acetic acid) is added to each microtiter well and incubated for 10 minutes at room temperature. Unbound SRB is removed by washing with 1% acetic acid. Plates are air dried and bound stain is solubilized with Tris buffer. Optical densities are read on a automated spectrophotometric plate reader at a single wavelength of 490 nm.
(§13) The values for mean+/−SD of data from triplicate wells are calculated. Some parameters for cellular responses can be calculated: GI=growth inhibition, TGI=total growth inhibition (cytostatic effect) and LC=cell killing (cytotoxic effect).
(§14) Obtained results may predict the usefulness of a certain drug as a potential cancer treatment. For this technique, compounds which show GI50 values smaller than 10 μg/ml are selected to continue with further studies. GI50's data allow to predict that not only could a drug be cystostatic, but also it could have a potential in terms of tumor reduction.

Test [7] concerns SK-MEL-28. In words: Inhibition of cells growth by colorimetric assay (SRB), SK-MEL-28. In kind it is cell-based. The note with it: Homo sapiens, SK-MEL-28, 48 h, SRB assay, 48 hours exposure; read-out: MEL-28 GI50. The procedure:
as §8, §9, §10, §11, §12, §13, §14
A general note: The SRB assay estimates cell density from bound dye.

Test [8] deals with HT-29. The test is described as follows: Inhibition of cells growth by colorimetric assay (SRB), HT-29. The class given is cell-based. The procedure:
as §8, §9, §10, §11, §12, §13, §14

The mark [9] stands for this setting: Homo sapiens, DU-145, 72 h, three days of incubation.

Where two headings read alike, the source gives them in different places.

Regarding `COc1cc2c(cc1OC(=O)/C=C/c1ccccc1)CCN[C@]21CS[C@@H]2c3c(OC(C)=O)c(C)c4c(c3[C@H](COC1=O)N1C2[C@H]2c3c(cc(C)c(OC)c3OC(=O)/C=C/c3ccccc3)C[C@@H]([C@@H]1C#N)N2C)OCO4` (some centres unmarked) [Compound 10], the IC50 – broadly, the concentration that inhibits the measured activity by half – in test [1] (Mus musculus, P388, 72 h) was 9.7 nM; in test [2] (Homo sapiens, A549, 72 h) it was 9.7 nM; in test [3] (Homo sapiens, HT-29, 72 h) it was 9.7 nM; in test [4] (Homo sapiens, SK-MEL-28, 72 h), 9.7 nM; in test [5] (Homo sapiens, DU-145, 72 h), 9.7 nM.

Turning to `CCCCCCCC(=O)Oc1cc2c(cc1OC)[C@@]1(CS[C@@H]3c4c(OC(C)=O)c(C)c5c(c4[C@H](COC1=O)N1C3[C@H]3c4c(cc(C)c(OC)c4O)C[C@@H]([C@@H]1C#N)N3C)OCO5)NCC2` (some centres unmarked) [Compound 14], the IC50 in test [1], in test [2], in test [3], in test [4] and in test [5] (three days of incubation) was 1.11 nM each time.

For the compound `CCCCCCCC(=O)Oc1cc2c(cc1OC)[C@@]1(CS[C@@H]3c4c(OC(C)=O)c(C)c5c(c4[C@H](COC1=O)N1C3[C@H]3c4c(cc(C)c(OC)c4OC(=O)CCCCCCC)C[C@@H]([C@@H]1C#N)N3C)OCO5)NCC2` (some centres unmarked) [Compound 15], the IC50 in test [1] (Mus musculus, P388, 72 h) worked out at 97.8 nM; in test [2] (Homo sapiens, A549, 72 h) it was 97.8 nM; in test [3] (Homo sapiens, HT-29, 72 h) it was 97.8 nM; in test [4] (Homo sapiens, SK-MEL-28, 72 h) it was 97.8 nM; in test [5] (setting [9]), 97.8 nM.

For `CCCCCCCCCCCCCCCC(=O)Oc1cc2c(cc1OC)[C@@]1(CS[C@@H]3c4c(OC(C)=O)c(C)c5c(c4[C@H](COC1=O)N1C3[C@H]3c4c(cc(C)c(OC)c4O)C[C@@H]([C@@H]1C#N)N3C)OCO5)NCC2` (some centres unmarked) [Compound 16], the IC50 was 9.91 nM in test [1] (Mus musculus, P388, 72 h); 9.91 nM in test [2] (Homo sapiens, A549, 72 h); 9.91 nM in test [3] (Homo sapiens, HT-29, 72 h); 9.91 nM in test [4] (Homo sapiens, SK-MEL-28, 72 h); 9.91 nM in test [5] (setting [9]).

Regarding `CCCCCCCCCCCCCCCC(=O)Oc1cc2c(cc1OC)[C@@]1(CS[C@@H]3c4c(OC(C)=O)c(C)c5c(c4[C@H](COC1=O)N1C3[C@H]3c4c(cc(C)c(OC)c4OC(=O)CCCCCCCCCCCCCCC)C[C@@H]([C@@H]1C#N)N3C)OCO5)NCC2` (some centres unmarked) [Compound 17], the IC50 in test [1] (Mus musculus, P388, 72 h) is 80.2 nM; in test [2] (Homo sapiens, A549, 72 h), 80.2 nM; in test [3] (Homo sapiens, HT-29, 72 h), 80.2 nM; in test [4] (Homo sapiens, SK-MEL-28, 72 h), 80.2 nM; in test [5] (setting [9]), 80.2 nM.

With `CCCCCCCCCCCCCCCC(=O)Oc1cc2c(cc1OC)[C@@]1(CS[C@@H]3c4c(OC(C)=O)c(C)c5c(c4[C@H](COC1=O)N1C3[C@@H]3N[C@@H](Cc4cc(C)c(OC)c(O)c43)[C@@H]1O)OCO5)NCC2` (some centres unmarked) [Compound 215], the GI50 (usually the concentration giving 50% growth inhibition) in test [6] (Homo sapiens, A549, 48 h, SRB assay, 48 hours exposure, read-out: A-549 GI50) amounted to 92.4 nM; in test [7] it was 19.7 nM; in test [8] (Homo sapiens, HT-29, 48 h, SRB assay, 48 hours exposure, read-out: HT-29 GI50), 86.8 nM. The LC50 (concentration for 50% cell killing) in test [6] (Homo sapiens, A549, 48 h, read-out: A-549 LC50, SRB assay, 48 hours exposure) amounted to 10.1 µM; in test [8] (Homo sapiens, HT-29, 48 h, read-out: HT-29 LC50, SRB assay, 48 hours exposure) it was 10.1 µM. Moreover, the “A-549 TGI” value in test [6] (SRB assay, 48 hours exposure) came out at 1.01E-05. Besides, the “HT-29 TGI” value in test [8] (SRB assay, 48 hours exposure) turned out to be 1.01E-05.
